Source: PubChem BioAssay (NCI)
Where “and” joins values, the source holds several entries; their conditions need not be identical. Equal values may be shown once.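 Compound exposure: 48 hours, 5 concentrations, 96-well plates. Abbreviation: GI50, concentration required for 50% inhibition of growth. TGI marks complete inhibition of growth.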 *1 amine or outer side, *2 acyl side, *3 side chain or, on linkers, in order; H or OH if unused. Where a SMILES comes first, the peptide text is derived from it. Bridges are numbered along the chain shown (N, C = ends). Roman numbers before positions name the chains, in order. [ ]: non-standard residue; d: D form. Actinocin(9to1) = Cc1c2oc3c(C)ccc(C(=O)[*:1])c3nc-2c(C(=O)[*:2])c(N)c1=O; NMeT = CN[CH](C(=O)O)[CH](C)O; Sar = CNCC(=O)O

Experiments:
Experiment in all cases: growth of human tumour cells (NCI), 48 h
SNB-75 CNS = system: SNB-75 CNS
SF-268 CNS = system: SF-268 CNS
SK-MEL-5 melanoma = system: SK-MEL-5 melanoma
CCRF-CEM leukemia = system: CCRF-CEM leukemia
SW-620 colon = system: SW-620 colon
SK-MEL-2 melanoma = system: SK-MEL-2 melanoma
OVCAR-4 ovarian = system: OVCAR-4 ovarian
IGROV1 ovarian = system: IGROV1 ovarian
MDA-MB-435 = system: MDA-MB-435
HCC-2998 colon = system: HCC-2998 colon

SMILES | TGI (SNB-75 CNS) | TGI (SF-268 CNS) [µM] | TGI (SK-MEL-5 melanoma) | TGI (CCRF-CEM leukemia) | TGI (SW-620 colon) | TGI (SK-MEL-2 melanoma) | TGI (OVCAR-4 ovarian) | TGI (IGROV1 ovarian) [µM] | TGI (MDA-MB-435) | TGI (HCC-2998 colon) [µM] | GI50 (SNB-75 CNS) [µM] | GI50 (SF-268 CNS) [µM] | GI50 (SK-MEL-5 melanoma) | GI50 (CCRF-CEM leukemia) [µM] | GI50 (SW-620 colon) [µM] | GI50 (SK-MEL-2 melanoma) [µM] | GI50 (OVCAR-4 ovarian) | GI50 (IGROV1 ovarian) [µM] | GI50 (MDA-MB-435) | GI50 (HCC-2998 colon)
Cc1cc(=O)oc2c(C)c(O)ccc12 | > 100 µM | > 100 | > 100 µM | > 100 µM | > 100 µM | > 100 µM | > 100 µM | > 100 | > 100 µM | > 100 | – | – | – | – | – | – | – | – | – | –
COC(=O)CC[C@]1(C)O[C@H]2[C@H]([C@@H](C)CCCC(C)=O)OC(=O)[C@@H]2C[C@H]1O | > 100 µM | > 100 | > 100 µM | > 100 µM | > 100 µM | > 100 µM | > 100 µM | > 100 | > 100 µM | > 100 | > 100 | > 100 | > 100 µM | > 100 | > 100 | > 100 | > 100 µM | 39.4 | 98.3 µM | 29.1 µM
COc1ccc(NC([Se])=NC23CC4CC(CC(C4)C2)C3)cc1 | 4.5 µM | > 100 | 1.79 µM | 4.97 µM | 6.45 µM | 7.33 µM | 3.46 µM | 7.7 | 19.5 µM | 8.5 | 1.54 | 3.55 | 0.558 µM | 0.705 | 1.51 | 2.27 | 0.42 µM | 1.64 | 2.84 µM | 2.86 µM
O=C1CC(=O)N(C(=O)c2nn(-c3ccc(Cl)cc3)cc2O)N1 | > 100 µM | > 100 | 12 µM | 16.7 µM | > 100 µM | > 100 µM | > 100 µM | 20.2 | > 100 µM | > 100 | 0.242 | 0.461 | 1.69 µM | 0.41 | 2.19 | > 100 | 1.51 µM | 0.378 | 0.355 µM | 4.17 µM
COc1cc2c(cc1OC)-c1ccc3cc4c(cc3c1N(CCCn1ccnc1)C2)OCO4 | 19.6 µM | 53.4 | 10.2 µM | 21.4 µM | 21 µM | 8.73 µM | 31.9 µM | 29.9 | 16.8 µM | 24.4 | 1.75 | 0.514 | 2.22 µM | 0.62 | 1.58 | 3.02 | 4.81 µM | 3.61 | 4.35 µM | 10.9 µM
O=C(O)CCCSc1ccccc1 | > 100 µM | > 100 | > 100 µM | > 100 µM | > 100 µM | > 100 µM | > 100 µM | > 100 | > 100 µM | > 100 | – | – | – | – | – | – | – | – | – | –
Cc1c2oc3c(C)ccc(C(=O)NC4C(=O)NC(C(C)C)C(=O)N5CCCC5C(=O)N(C)CC(=O)N(C)C(C(C)O)C(=O)OC4C)c3nc-2c(C(=O)NC2C(=O)NC(C(C)C)C(=O)N3CCCC3C(=O)N(C)CC(=O)N(C)C(C(C)O)C(=O)OC2C)c(N)c1=O (centres undefined) (I: TVP[Sar][NMeT] / II: TVP[Sar][NMeT]; ester I:1-I:C, II:1-II:C; linker I:N-II:N via Actinocin(9to1); configuration not given here) | 3.43 µM and 0.839 µM | > 63 | 2.9 µM and > 1 µM | 26.7 µM and > 1 µM | 43.4 µM and > 1 µM | 3.97 µM and > 1 µM | 32.4 µM and > 1 µM | > 41.7 | 21 µM and > 1 µM | > 29.3 | – | – | 0.473 µM and > 1 µM | – | – | – | 6.1 µM and > 1 µM | – | 2.11 µM and > 1 µM | 3.64 µM and > 1 µM
C=C1C(=O)OC2C1CCC(C)C1C=CC(=O)C12C (centres undefined) | 26.8 µM | 39.5 | 12 µM | 8.54 µM | 4.68 µM | 17.5 µM | 16.6 µM | 19.4 | 3.34 µM | 26.6 | – | – | – | – | – | – | – | – | – | –
CS(=O)(=O)CCNCc1ccc(-c2ccc3ncnc(Nc4ccc(OCc5ccccc5)c(Br)c4)c3c2)o1 | > 25 µM | > 25 | 6.71 µM | > 25 µM | 11.1 µM | 13.1 µM | > 25 µM | > 25 | 15.8 µM | 9.11 | 10.1 | 10.7 | 3.44 µM | 9.89 | 5.29 | 6.5 | 15.5 µM | 4.94 | 6.09 µM | 4.56 µM
COc1ccc(-c2cc(-c3ccc(Cl)cc3)nc(SCCCC(=O)NO)n2)cc1 | 5.61 µM | 4.27 | 3.31 µM | > 100 µM | 3.29 µM | 6.94 µM | 11.6 µM | 3.56 | 3.19 µM | 3.45 | 1.22 | 1.15 | 1.59 µM | 0.222 | 0.553 | 2.42 | 0.849 µM | 1.09 | 1.21 µM | 1.68 µM
CC(=O)N1C/C(=C/c2ccc(Cl)cc2)C(=O)/C(=C/c2ccc(Cl)cc2)C1 | 2.64 µM | 4.02 | 2.9 µM | 3.03 µM | 0.981 µM | 4.56 µM | 3.22 µM | 2.11 | 1.82 µM | 1.45 | 0.963 | 1.37 | 1.49 µM | 0.319 | 0.297 | 2.19 | 0.795 µM | 0.761 | 0.43 µM | 0.632 µM
Nc1c2c(c(O)c3c1=C(CO)C=N3)=NCCS2 | 0.306 µM | 1.05 | 0.0543 µM | 1.9 µM | 0.391 µM | 0.658 µM | 0.264 µM | 0.535 | 0.169 µM | 0.329 | 0.168 | 0.291 | 0.0215 µM | 0.329 | 0.202 | 0.25 | 0.136 µM | 0.209 | 0.0521 µM | 0.169 µM
C=C1C(=O)O[C@H]2[C@H]1CC/C(COC(=O)C(=O)c1cn(C)c3ccc(Cl)cc13)=C\CC[C@@]1(C)O[C@@H]21 | 3.8 µM | 4.56 | 2.91 µM | 10.9 µM | 10.9 µM | 3.61 µM | 12.4 µM | 2.78 | 3.13 µM | 3.52 | 1.61 | 1.56 | 1.55 µM | 0.338 | 0.857 | 1.39 | 2.26 µM | 1.17 | 1.27 µM | 1.86 µM
